# Source: US20030082112A1, “Composition” (Unilever Home & Personal Care USA, Division of Conopco, Inc., priority 2001, published 2003)
# Test: Storage stability of the alkyl hydroxybenzoate in the alkaline chalk oral care formulation
# Format: physicochemical
# Conditions: 37° C. for two months; 1.0 w/w % in fine ground natural chalk formulation of the Example
# Protocol: The following formulation is a composition according to the invention and is made by ordinary methods known to a skilled person.
# This octyl parahydroxy benzoic acid in this formulation was stable at 37° C. for two months.
structure (smiles),measurement,value
CCCCCCCCOC(=O)c1ccc(O)cc1 [octyl parahydroxy benzoic acid],stability in the formulation,stable
